# Laboratory results taken from ChEMBL document CHEMBL1132305, “Effect of aromatic short-chain analogues of ceramide on axonal growth in hippocampal neurons” (1999).
# Species: Rattus norvegicus
# Assay: Effect on the growth of axons of hippocampal neurons stimulated by basic fibroblast growth factor (bFGF), no. of axonal branch points/cell at 51 hr upon incubation with bFGF 1.52 0.09
# Format: functional
row,Compound,No. of axonal branch points/cell
1,CCCC[C@H](C)[C@@H](OC(=O)C[C@H](CC(=O)O)C(=O)O)[C@@H](C[C@H](C)C[C@@H](O)CCCC[C@@H](O)C[C@H](O)[C@H](C)N)OC(=O)C[C@H](CC(=O)O)C(=O)O,1.12
2,CCCCCCCC(=O)N[C@@H](CO)[C@H](O)/C=C/c1ccccc1,1.4
3,CCCC(=O)N[C@@H](CO)[C@H](O)/C=C/c1ccccc1,1.38
4,CC(=O)N[C@@H](CO)[C@H](O)/C=C/c1ccccc1,1.3
5,CCCCCCC/C=C/[C@H](O)[C@H](CO)NC(=O)CCCCC,1.18
6,CCCCCCC/C=C/[C@@H](O)[C@H](CO)NC(C)=O,1.5
7,CCCCCC(=O)N[C@@H](CO)[C@@H](O)/C=C/c1ccccc1,1.22
8,CCCCCCC/C=C/[C@@H](O)[C@H](CO)NC(=O)CCCCC,1.3
9,CCCCCC(=O)N[C@@H](CO)[C@H](O)/C=C/c1ccccc1,1.45
